Values belong to the compound of their own block, whether it stands above or below them.
Assays:
[1] = biological target: T1, Alpha-2C adrenergic receptor (Homo sapiens, UniProt P18825); assay: Selectivity interaction (Radioligand binding assay (MDS Pharma Service)) EUB0000296b ADRA2C
T1 sequence (P18825 whole entry): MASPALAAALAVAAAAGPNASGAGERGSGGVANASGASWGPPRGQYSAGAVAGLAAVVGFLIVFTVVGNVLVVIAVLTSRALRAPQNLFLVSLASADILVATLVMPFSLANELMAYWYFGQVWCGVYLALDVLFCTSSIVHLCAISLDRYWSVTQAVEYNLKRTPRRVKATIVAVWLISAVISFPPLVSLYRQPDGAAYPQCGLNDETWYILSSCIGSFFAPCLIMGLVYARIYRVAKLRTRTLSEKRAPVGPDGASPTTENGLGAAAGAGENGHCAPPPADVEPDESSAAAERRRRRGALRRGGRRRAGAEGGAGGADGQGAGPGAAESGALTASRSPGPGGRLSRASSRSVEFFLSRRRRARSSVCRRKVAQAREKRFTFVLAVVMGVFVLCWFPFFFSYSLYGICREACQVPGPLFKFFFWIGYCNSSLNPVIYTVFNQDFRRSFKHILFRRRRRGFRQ

[2] = biological target: T2, Epidermal growth factor receptor (Homo sapiens, UniProt P00533); assay: Selectivity interaction (MSD Pharma/Taiwan screen (enzymes and receptors) ) EUB0000296b EGFR
[3] = biological target: Dual specificity tyrosine-phosphorylation-regulated kinase 1B (Homo sapiens, UniProt Q9Y463); assay: Selectivity interaction (KinomeScan (DiscoverX)) EUB0000296b DYRK1B; settings: at 1 µM
[4] = biological target: Mitogen-activated protein kinase 14 (Homo sapiens, UniProt Q16539); assay: Selectivity interaction (MSD Pharma/Taiwan screen (enzymes and receptors) ) EUB0000296b MAPK14
[5] = biological target: Phosphatidylinositol 4-phosphate 3-kinase C2 domain-containing subunit beta (Homo sapiens) (UniProt O00750); assay: Selectivity interaction (KinomeScan (DiscoverX)) EUB0000296b PIK3C2B; settings: at 1 µM
[6] = biological target: Polyunsaturated fatty acid 5-lipoxygenase (Homo sapiens, UniProt P09917); assay: Selectivity interaction (MSD Pharma/Taiwan screen (enzymes and receptors) ) EUB0000296b ALOX5
[7] = biological target: Protein kinase C epsilon type (Homo sapiens) (UniProt Q02156); assay: Selectivity interaction (KinomeScan (DiscoverX)) EUB0000296b PRKCE; settings: at 1 µM
[8] = biological target: Sodium-dependent dopamine transporter (Homo sapiens, UniProt Q01959); assay: Selectivity interaction (Radioligand binding assay (MDS Pharma Service)) EUB0000296b SLC6A3
[9] = biological target: Serine/threonine-protein kinase STK11 (Homo sapiens) (UniProt Q15831); assay: Selectivity interaction (KinomeScan (DiscoverX)) EUB0000296b STK11; settings: at 1 µM
[10] = biological target: Mitogen-activated protein kinase 3 (Homo sapiens, UniProt P27361); assay: Selectivity interaction (MSD Pharma/Taiwan screen (enzymes and receptors) ) EUB0000296b MAPK3
[11] = biological target: T3, Gamma-aminobutyric acid receptor subunit alpha-1 (Homo sapiens, UniProt P14867); assay: Selectivity interaction (GPCR panel (PDSP screen)) EUB0000296b GABRA1
T3 sequence (P14867 whole entry): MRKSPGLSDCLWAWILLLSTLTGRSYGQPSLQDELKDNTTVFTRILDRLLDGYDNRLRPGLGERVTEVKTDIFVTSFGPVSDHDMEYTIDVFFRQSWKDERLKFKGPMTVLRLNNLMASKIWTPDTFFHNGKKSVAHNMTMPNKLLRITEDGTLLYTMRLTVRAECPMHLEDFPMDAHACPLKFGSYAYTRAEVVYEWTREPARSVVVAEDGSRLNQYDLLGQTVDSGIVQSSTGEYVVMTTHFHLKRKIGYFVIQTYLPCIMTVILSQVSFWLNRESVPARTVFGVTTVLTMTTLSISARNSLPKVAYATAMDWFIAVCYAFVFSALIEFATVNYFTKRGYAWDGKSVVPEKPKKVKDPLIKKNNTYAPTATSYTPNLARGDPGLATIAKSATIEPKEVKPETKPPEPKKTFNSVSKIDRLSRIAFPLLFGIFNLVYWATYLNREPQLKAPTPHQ

[12] = biological target: T4, Synaptic vesicular amine transporter (Homo sapiens, UniProt Q05940); assay: Selectivity interaction (Radioligand binding assay (MDS Pharma Service)) EUB0000296b SLC18A2
[13] = biological target: T5, Adenosine receptor A3 (Homo sapiens, UniProt P0DMS8); assay: Selectivity interaction (Radioligand binding assay (MDS Pharma Service)) EUB0000296b ADORA3
T5 sequence (P0DMS8 whole entry): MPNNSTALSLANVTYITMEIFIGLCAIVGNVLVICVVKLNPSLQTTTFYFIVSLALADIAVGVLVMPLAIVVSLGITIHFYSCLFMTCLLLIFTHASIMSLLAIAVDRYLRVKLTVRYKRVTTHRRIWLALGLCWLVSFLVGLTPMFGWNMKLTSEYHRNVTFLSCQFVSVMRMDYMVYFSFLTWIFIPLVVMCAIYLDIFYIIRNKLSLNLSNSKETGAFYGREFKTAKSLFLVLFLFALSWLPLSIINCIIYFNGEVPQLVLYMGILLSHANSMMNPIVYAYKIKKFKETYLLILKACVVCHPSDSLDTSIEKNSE

[14] = biological target: eIF-2-alpha kinase GCN2 (Homo sapiens) (UniProt Q9P2K8); assay: Selectivity interaction (KinomeScan (DiscoverX)) EUB0000296b EIF2AK4; settings: at 1 µM
[15] = biological target: RAC-alpha serine/threonine-protein kinase (Homo sapiens, UniProt P31749); assay: Selectivity interaction (KinomeScan (DiscoverX)) EUB0000750a AKT1; settings: at 1 µM
[16] = biological target: Citron Rho-interacting kinase (Homo sapiens) (UniProt O14578); assay: Selectivity interaction (KinomeScan (DiscoverX)) EUB0000750a CIT; settings: at 1 µM
[17] = biological target: Phosphatidylinositol 4,5-bisphosphate 3-kinase catalytic subunit alpha isoform (Homo sapiens, UniProt P42336); assay: Selectivity interaction (KinomeScan (DiscoverX)) EUB0000750a PIK3CA; settings: at 1 µM
[18] = biological target: T2, Epidermal growth factor receptor; assay: Selectivity interaction (KinomeScan (DiscoverX)) EUB0000750a EGFR; settings: at 1 µM
[19] = biological target: Inhibitor of nuclear factor kappa-B kinase subunit epsilon (Homo sapiens) (UniProt Q14164); assay: Selectivity interaction (KinomeScan (DiscoverX)) EUB0000750a IKBKE; settings: at 1 µM
[20] = biological target: T4, Synaptic vesicular amine transporter; assay: Selectivity interaction (Enzyme and Receptor panel (MSD Pharma/Taiwan)) EUB0000750a SLC18A2
[21] = biological target: T6, Serine/threonine-protein kinase LATS2 (Homo sapiens) (UniProt Q9NRM7); assay: Selectivity interaction (KinomeScan (DiscoverX)) EUB0000750a LATS2; settings: at 1 µM
T6 sequence (whole entry): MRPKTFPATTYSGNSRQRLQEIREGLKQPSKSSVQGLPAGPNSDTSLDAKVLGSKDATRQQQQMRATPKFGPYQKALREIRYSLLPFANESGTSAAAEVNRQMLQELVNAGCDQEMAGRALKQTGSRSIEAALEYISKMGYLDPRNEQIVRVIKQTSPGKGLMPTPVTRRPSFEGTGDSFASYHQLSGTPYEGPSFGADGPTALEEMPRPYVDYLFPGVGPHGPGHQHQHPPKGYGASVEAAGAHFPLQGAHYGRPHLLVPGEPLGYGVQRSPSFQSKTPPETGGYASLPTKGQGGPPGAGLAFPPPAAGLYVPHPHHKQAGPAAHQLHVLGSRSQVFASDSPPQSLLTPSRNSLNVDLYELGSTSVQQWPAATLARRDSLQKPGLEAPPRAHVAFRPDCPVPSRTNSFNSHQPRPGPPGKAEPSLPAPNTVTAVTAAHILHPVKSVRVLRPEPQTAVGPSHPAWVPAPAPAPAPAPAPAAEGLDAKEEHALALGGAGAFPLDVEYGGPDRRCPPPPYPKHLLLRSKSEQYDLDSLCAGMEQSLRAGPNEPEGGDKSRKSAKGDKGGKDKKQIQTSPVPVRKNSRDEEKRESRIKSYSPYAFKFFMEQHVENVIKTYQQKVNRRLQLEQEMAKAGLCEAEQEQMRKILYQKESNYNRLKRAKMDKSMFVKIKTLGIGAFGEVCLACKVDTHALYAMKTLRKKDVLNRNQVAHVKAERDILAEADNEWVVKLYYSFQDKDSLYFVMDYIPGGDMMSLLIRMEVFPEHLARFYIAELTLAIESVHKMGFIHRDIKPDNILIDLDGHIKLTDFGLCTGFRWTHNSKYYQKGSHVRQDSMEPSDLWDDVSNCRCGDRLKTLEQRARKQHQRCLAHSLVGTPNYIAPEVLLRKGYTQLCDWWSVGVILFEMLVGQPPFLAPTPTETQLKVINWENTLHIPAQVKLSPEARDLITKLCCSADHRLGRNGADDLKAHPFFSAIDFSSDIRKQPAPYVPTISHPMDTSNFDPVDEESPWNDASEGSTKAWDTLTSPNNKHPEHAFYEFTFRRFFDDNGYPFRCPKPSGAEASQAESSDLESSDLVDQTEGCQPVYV

T2 sequence (P00533 whole entry): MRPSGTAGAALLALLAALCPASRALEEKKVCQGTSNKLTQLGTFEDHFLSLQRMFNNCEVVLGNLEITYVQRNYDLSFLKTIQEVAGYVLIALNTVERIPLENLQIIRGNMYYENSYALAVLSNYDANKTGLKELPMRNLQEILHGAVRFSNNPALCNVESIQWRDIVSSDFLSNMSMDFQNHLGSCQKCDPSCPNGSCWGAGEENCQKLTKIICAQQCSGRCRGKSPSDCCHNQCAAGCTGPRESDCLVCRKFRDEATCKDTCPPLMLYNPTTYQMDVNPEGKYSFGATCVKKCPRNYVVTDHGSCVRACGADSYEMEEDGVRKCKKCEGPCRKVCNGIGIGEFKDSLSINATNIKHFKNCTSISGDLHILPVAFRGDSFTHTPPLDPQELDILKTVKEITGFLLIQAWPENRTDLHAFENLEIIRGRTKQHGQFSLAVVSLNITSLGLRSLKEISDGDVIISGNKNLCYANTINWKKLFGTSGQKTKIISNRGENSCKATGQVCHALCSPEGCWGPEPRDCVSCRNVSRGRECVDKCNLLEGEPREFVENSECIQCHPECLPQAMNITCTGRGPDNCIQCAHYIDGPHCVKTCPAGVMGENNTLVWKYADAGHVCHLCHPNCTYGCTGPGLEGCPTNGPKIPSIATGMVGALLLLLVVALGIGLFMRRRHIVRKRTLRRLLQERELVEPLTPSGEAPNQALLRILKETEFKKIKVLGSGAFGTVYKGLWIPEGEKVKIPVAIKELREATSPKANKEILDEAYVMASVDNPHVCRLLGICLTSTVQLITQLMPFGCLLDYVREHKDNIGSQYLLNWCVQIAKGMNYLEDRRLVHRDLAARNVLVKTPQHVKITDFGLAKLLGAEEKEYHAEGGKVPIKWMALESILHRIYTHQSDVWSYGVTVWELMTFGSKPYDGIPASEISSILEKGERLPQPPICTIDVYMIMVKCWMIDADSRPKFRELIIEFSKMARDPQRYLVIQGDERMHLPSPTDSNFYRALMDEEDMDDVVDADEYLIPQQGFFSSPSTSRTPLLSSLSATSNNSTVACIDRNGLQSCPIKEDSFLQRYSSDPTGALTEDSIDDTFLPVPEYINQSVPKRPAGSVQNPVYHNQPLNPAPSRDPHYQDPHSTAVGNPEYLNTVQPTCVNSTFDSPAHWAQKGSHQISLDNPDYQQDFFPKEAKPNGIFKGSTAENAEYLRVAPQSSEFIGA
T4 sequence (Q05940 whole entry): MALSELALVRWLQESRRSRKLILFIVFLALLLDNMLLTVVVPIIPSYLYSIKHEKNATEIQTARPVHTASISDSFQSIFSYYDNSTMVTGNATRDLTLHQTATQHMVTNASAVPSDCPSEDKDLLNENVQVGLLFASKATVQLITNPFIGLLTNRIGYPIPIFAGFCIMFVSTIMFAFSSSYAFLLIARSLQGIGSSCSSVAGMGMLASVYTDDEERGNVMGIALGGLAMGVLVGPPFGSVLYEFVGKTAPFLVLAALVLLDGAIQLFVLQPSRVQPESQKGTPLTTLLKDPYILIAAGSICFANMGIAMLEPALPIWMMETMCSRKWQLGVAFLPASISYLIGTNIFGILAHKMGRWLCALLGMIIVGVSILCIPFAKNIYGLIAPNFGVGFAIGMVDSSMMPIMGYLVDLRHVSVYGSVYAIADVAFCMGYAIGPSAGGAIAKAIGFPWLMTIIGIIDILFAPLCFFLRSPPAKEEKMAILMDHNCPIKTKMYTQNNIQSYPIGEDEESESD
Chain of RAC-alpha serine/threonine-protein kinase (P31749 whole entry): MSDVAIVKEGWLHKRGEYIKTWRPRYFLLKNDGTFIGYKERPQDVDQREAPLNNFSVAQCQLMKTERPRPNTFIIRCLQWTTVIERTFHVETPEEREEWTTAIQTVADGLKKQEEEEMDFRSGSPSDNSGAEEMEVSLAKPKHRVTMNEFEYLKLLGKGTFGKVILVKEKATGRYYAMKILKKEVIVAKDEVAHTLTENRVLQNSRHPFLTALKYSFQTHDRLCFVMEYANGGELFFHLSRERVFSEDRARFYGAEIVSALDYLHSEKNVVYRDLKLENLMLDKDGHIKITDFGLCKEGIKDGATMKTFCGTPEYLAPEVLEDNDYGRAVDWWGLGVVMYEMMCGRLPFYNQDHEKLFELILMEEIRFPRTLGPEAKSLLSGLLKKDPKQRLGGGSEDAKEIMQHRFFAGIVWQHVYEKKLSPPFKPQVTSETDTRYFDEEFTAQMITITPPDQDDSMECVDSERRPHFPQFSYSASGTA
Chain of Mitogen-activated protein kinase 14 (Q16539 whole entry, the tested form may be a part): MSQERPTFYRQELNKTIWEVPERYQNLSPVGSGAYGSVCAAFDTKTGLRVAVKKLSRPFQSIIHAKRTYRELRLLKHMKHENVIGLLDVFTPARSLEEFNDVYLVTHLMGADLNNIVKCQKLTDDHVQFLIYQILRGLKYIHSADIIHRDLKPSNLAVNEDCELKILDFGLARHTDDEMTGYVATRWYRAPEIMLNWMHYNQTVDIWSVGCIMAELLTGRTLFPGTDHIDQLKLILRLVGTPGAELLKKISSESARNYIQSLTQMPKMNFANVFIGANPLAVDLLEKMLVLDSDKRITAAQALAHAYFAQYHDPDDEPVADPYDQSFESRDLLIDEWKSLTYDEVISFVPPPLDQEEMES
Chain of Phosphatidylinositol 4,5-bisphosphate 3-kinase catalytic subunit alpha isoform (P42336 whole entry, canonical isoform): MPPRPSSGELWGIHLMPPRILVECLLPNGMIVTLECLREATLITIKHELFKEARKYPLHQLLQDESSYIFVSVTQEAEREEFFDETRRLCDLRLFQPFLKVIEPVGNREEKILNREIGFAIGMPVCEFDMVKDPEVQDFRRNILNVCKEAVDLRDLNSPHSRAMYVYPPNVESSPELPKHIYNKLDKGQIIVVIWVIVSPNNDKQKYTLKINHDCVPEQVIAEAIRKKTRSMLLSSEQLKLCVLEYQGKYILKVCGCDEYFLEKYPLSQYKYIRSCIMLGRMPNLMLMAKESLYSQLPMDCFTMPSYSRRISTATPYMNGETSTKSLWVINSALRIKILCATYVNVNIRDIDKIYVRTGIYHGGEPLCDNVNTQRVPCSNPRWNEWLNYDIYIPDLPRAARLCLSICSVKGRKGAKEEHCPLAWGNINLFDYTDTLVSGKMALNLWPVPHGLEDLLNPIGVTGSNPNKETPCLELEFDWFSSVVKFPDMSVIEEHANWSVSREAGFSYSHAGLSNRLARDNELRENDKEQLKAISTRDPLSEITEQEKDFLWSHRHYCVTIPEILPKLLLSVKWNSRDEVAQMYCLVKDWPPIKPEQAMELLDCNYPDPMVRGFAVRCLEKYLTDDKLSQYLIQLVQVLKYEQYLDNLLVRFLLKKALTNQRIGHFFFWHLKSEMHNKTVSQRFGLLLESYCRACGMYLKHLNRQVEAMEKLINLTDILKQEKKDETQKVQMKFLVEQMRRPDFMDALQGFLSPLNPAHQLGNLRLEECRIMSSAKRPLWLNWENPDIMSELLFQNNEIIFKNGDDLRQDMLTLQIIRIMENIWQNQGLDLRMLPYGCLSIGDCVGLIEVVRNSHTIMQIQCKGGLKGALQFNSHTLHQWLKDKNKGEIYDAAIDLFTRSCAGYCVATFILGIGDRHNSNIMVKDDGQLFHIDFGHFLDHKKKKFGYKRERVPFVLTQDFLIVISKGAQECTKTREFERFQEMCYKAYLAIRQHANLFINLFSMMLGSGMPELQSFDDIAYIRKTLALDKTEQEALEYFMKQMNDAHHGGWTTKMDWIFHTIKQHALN
Chain of Serine/threonine-protein kinase STK11 (Homo sapiens) (Q15831 whole entry): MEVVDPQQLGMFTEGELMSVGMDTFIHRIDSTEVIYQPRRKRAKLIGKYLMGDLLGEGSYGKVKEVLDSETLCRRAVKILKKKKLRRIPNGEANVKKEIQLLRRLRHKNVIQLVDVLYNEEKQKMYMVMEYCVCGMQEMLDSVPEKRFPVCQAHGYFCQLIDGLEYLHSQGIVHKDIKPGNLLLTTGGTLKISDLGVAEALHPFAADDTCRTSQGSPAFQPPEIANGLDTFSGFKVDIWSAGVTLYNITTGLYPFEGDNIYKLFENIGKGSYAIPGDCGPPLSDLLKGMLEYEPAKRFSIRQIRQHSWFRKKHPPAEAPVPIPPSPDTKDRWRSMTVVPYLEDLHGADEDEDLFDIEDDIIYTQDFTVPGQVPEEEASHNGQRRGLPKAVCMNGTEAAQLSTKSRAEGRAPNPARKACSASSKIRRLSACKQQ
Chain of Mitogen-activated protein kinase 3 (P27361 whole entry): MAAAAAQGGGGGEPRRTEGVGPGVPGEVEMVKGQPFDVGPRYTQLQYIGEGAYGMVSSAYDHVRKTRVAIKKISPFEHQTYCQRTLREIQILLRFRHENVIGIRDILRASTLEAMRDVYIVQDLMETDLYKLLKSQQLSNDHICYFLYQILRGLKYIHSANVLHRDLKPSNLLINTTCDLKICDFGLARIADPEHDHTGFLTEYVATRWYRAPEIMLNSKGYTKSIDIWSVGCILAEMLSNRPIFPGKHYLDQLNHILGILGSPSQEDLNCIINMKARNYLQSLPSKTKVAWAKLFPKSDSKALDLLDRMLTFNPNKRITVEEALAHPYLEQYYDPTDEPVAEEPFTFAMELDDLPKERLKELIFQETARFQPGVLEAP

Ki [1]: 1130 nM
IC50 [2]: 3260 nM
% of control [3]: 35%
IC50 [4]: 3680 nM
% of control [5]: 48%
IC50 [6]: 1340 nM
% of control [7]: 48%
Ki [8]: 799 nM
% of control [9]: 43%
IC50 [10]: 8610 nM
Ki [11]: 82 nM
Ki [12]: 648 nM
Ki [13]: 773 nM
% of control [14]: 48%
Compound: CC(=O)Nc1c(C(C)=O)c(=O)n(C)c2nc(-c3ccc(Cl)cc3Cl)c(-c3ccc(Cl)cc3)cc12 [NAPHTHYRIDINONE]

% of control [15]: 5%
% of control [16]: 0%
% of control [17]: 36%
% of control [18]: 0%
% of control [19]: 0%
IC50 [20]: 213 nM
% of control [21]: 0%
Compound: O=S(=O)(NC1CCC(c2cc(F)ccc2F)(S(=O)(=O)c2ccc(Cl)cc2)CC1)C(F)(F)F (stereo unspecified) [MRK-560]

— ChEMBL document CHEMBL5212743, “Selectivity Literature for EUbOPEN Chemogenomics Library wave 3” (2023)
